How the values were obtained:
[1] = biological target: T1, human Adenosine A1 receptor (Homo sapiens, UniProt P30542); experiment: Adenosine receptor TR-FRET binding assay (CA200645 displacement), A1
T1 sequence (P30542 1-326): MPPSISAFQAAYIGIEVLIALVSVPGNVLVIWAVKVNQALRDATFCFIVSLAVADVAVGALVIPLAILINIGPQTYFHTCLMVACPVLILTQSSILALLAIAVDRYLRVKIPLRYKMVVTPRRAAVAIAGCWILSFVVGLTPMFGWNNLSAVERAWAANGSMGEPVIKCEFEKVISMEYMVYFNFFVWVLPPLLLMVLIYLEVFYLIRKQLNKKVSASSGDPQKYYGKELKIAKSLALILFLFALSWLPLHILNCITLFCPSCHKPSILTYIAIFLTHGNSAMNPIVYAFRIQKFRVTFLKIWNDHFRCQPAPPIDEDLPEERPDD
Method: (§1) All FRET binding experiments were conducted at room temperature in white 384-well plates, in assay binding buffer containing 1×LabMed (Cisbio, France), 100 μg/mL saponin, 1% DMSO and 0.02% pluronic acid. Binding of the fluorescently labelled Adenosine receptor antagonist XAC (CA200645, FRET acceptor) to terbium-labelled A1, A2a, A2b and A3 adenosine receptors (FRET donors) was detected by time-resolved FRET due to the close proximity of the donor and acceptor in a binding event. To investigate the ability of unlabelled test compounds to bind to Adenosine A1, A2a, A2b and A3 receptors, dose response curves were constructed that determined the ability of a range of concentrations to inhibit the binding of 30 nM CA200645 to the A2b receptor and 100 nM CA200645 to the A1, A2a, and A3 receptor.
(§2) Serial dilution (1:3 dilutions) of test compounds in neat DMSO and transfer of a 400 nL sample of test compound into the assay plate was carried out using the Mosquito (TTP Labtech, UK). The compound samples were incubated for 2 hours at room temperature with a fixed concentration of CA200645 defined for each receptor (see above) and CHO cell membranes containing the human Adenosine A1 (0.5 μg/well), A2a (0.3 μg/well), A2b (1 μg/well) or A3 (1 μg/well) receptor in 40 μL of assay buffer. Total and non-specific binding of CA200645 was determined in the absence and presence of 10 μM XAC, respectively. Following 2 hours incubation, the level of CA200645 binding was detected on a Pherastar FSX (BMG Labtech, Germany) using standard TR-FRET settings. The terbium donor was excited with three laser flashes at a wavelength of 337 nm, and donor and acceptor emission was detected at 620 nm and 665 nm wavelengths, respectively. FRET ratios were obtained by multiplying the acceptor/donor ratio value by 10,000. Specific binding was determined by subtracting the non-specific binding FRET ratio from the total binding FRET ratio. Compound IC50 curves were analysed using GraphPad Prism 7.0 (GraphPad, USA) and Ki affinity values were determined from the obtained IC50 values using the method of Cheng and Prusoff.

[2] = biological target: T2, human Adenosine A3 receptor (Homo sapiens, UniProt P0DMS8); experiment: Adenosine receptor TR-FRET binding assay (CA200645 displacement), A3
T2 sequence (P0DMS8 1-318): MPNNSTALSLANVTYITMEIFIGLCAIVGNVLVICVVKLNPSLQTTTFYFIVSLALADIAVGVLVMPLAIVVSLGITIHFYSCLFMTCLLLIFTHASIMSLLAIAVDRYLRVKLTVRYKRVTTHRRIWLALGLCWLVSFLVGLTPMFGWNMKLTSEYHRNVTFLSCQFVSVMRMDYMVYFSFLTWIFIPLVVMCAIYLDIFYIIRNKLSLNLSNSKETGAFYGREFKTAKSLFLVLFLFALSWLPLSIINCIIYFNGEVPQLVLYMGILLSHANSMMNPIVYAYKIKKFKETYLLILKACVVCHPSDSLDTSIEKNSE

[3] = biological target: T3, human Adenosine A2a receptor (Homo sapiens, UniProt P29274); experiment: Adenosine receptor TR-FRET binding assay (CA200645 displacement), A2a; conditions: 100 nM CA200645, CHO cell membranes, 2 hours at room temperature
T3 construct: expressed in transfected cells; host or cells: CHO cell membranes

[4] = biological target: T4, human Adenosine A2b receptor (Homo sapiens, UniProt P29275); experiment: Adenosine receptor TR-FRET binding assay (CA200645 displacement), A2b; conditions: 30 nM CA200645, CHO cell membranes, 2 hours at room temperature
T4 construct: expressed in transfected cells; host or cells: CHO cell membranes
T4 sequence (P29275 1-332): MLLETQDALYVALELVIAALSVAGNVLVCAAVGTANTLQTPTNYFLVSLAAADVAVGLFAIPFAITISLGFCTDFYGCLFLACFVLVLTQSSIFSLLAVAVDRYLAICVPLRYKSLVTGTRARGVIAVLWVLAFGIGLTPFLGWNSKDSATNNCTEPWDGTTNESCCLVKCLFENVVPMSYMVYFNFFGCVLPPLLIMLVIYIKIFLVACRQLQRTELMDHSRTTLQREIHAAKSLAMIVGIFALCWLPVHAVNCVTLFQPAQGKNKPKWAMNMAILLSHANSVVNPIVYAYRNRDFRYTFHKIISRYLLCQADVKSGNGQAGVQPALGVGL
Method: as §1, §2

T3 sequence (P29274 whole entry): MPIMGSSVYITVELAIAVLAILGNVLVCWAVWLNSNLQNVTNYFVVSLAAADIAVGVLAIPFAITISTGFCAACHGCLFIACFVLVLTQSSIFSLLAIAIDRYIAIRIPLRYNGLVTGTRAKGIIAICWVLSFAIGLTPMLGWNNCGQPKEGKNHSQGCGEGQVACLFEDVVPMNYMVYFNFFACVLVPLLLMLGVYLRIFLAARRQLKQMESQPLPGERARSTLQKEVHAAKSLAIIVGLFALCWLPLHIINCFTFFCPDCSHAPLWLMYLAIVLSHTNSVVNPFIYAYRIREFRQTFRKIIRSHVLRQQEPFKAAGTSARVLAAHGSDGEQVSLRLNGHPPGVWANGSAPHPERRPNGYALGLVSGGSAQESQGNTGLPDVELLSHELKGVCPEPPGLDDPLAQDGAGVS

Compound | Ki [1] | Ki [2] | Ki [3] | Ki [4]
Cc1cc(-c2c(-c3cccc(C#N)c3)nn3ccc(N[C@H]4CCNC4)nc23)cc(Cl)n1 [Example 4.6] | 230 nM | > 1000 nM | 5.1 nM | 4 nM
Cc1cc(-c2c(-c3cccc(C#N)c3)nn3ccc(C(=O)NC[C@@H](C)O)nc23)cc(Cl)n1 [Example 6.5, 3-(2-Chloro-6-methyl-4-pyridyl)-2-(3-cyanophenyl)-N-[(2R)-2-hydroxypropyl]pyrazolo[1,5-a]pyrimidine-5-carboxamide] | 361 nM | > 1000 nM | 0.9 nM | 7 nM
Cc1cc(-c2c(-c3cccc(C#N)c3)nn3ccc(C(=O)NCCN4CCN(c5ccccc5)CC4)nc23)cc(Cl)n1 [Example 5.4] | 107 nM | > 1000 nM | 1.3 nM | 19 nM
Cc1cc(-c2c(-c3cccc(C#N)c3)nn3ccc(NC4CCN(C)CC4)nc23)cc(Cl)n1 [Example 2.42] | 149 nM | > 1000 nM | 0.5 nM | 4 nM
Cc1cc(-c2c(-c3cccc(C#N)c3)nn3ccc(N[C@@H](C)C(=O)O)nc23)cc(Cl)n1 [Example 17, (2S)-2-[[3-(2-Chloro-6-methyl-4-pyridyl)-2-(3-cyanophenyl)pyrazolo[1,5-a]pyrimidin-5-yl]amino]propanoic acid] | 136 nM | > 1000 nM | 17.9 nM | 101 nM
Cc1cccnc1CN1CCN(c2ccn3nc(-c4cccc(F)c4)c(C#N)c3n2)CC1 [Example 60, 2-(3-Fluorophenyl)-5-[4-[(3-methyl-2-pyridyl)methyl]piperazin-1-yl]pyrazolo[1,5-a]pyrimidine-3-carbonitrile] | 27 nM | 1000 nM | 33.9 nM | 4600 nM
OCc1c(-c2ccco2)nn2ccc(NCc3ccccc3)nc12 [Example 75, [5-(Benzylamino)-2-(2-furyl)pyrazolo[1,5-a]pyrimidin-3-yl]methanol] | 1140 nM | 1740 nM | 153 nM | 1460 nM
Cc1cc(-c2c(-c3cccc(C#N)c3)nn3ccc(N)nc23)cnc1N [Example 26, 3-[5-Amino-3-(6-amino-5-methyl-3-pyridyl)pyrazolo[1,5-a]pyrimidin-2-yl]benzonitrile] | 6 nM | 2430 nM | 147 nM | 409 nM
Cc1cc(-c2c(-c3cccc(C#N)c3)nn3ccc(C(=O)N[C@@H](C)C(C)(C)O)nc23)cc(CO)n1 [Example 100, 2-(3-Cyanophenyl)-N-[(1S)-2-hydroxy-1,2-dimethyl-propyl]-3-[2-(hydroxymethyl)-6-methyl-4-pyridyl]pyrazolo[1,5-a]pyrimidine-5-carboxamide] | 64 nM | > 1000 nM | 0.4 nM | 28 nM
Cc1cc(-c2c(-c3cccc(C#N)c3)nn3ccc(CN4CCOCC4)nc23)cc(Cl)n1 [Example 20, 3-[3-(2-Chloro-6-methyl-4-pyridyl)-5-(morpholinomethyl)pyrazolo[1,5-a]pyrimidin-2-yl]benzonitrile] | 573 nM | > 1000 nM | 11.6 nM | 22 nM
Cc1cc(-c2c(-c3cccc(C#N)c3)nn3ccc(C(=O)N[C@H]4COC[C@H]4O)nc23)cc(Cl)n1 [Example 6.17, 3-(2-Chloro-6-methyl-4-pyridyl)-2-(3-cyanophenyl)-N-[(3S,4S)-4-hydroxytetrahydrofuran-3-yl]pyrazolo[1,5-a]pyrimidine-5-carboxamide] | 110 nM | > 1000 nM | 0.5 nM | 3 nM
Cc1cc(-c2c(-c3cccc(C#N)c3)nn3ccc(NCC(N)=O)nc23)cc(Cl)n1 [Example 2.28] | 81 nM | > 1000 nM | 11.6 nM | 2 nM
Cc1cc(-c2c(-c3cccc(C#N)c3)nn3ccc(C(=O)NCC4CC(O)C4)nc23)cc(Cl)n1 (centres unmarked) [Example 6.10, 3-(2-Chloro-6-methyl-4-pyridyl)-2-(3-cyanophenyl)-N-[(3-hydroxycyclobutyl)methyl]pyrazolo[1,5-a]pyrimidine-5-carboxamide] | 581 nM | > 1000 nM | 2.5 nM | 24 nM
CCn1nccc1-c1c(-c2cccc(C#N)c2)nn2ccc(NCC(C)(C)O)nc12 [Example 33, 3-[3-(2-Ethylpyrazol-3-yl)-5-[(2-hydroxy-2-methyl-propyl)amino]pyrazolo[1,5-a]pyrimidin-2-yl]benzonitrile] | 118 nM | > 1000 nM | 13.1 nM | 28 nM

The next lines start with the values.

Ki [1] | Ki [2] | Ki [3] | Ki [4] | Compound
184 nM | > 1000 nM | 2 nM | 15 nM | Cc1cc(-c2c(-c3cccc(C#N)c3)nn3ccc(NC(=O)[C@](C)(O)C(F)(F)F)nc23)cc(C)n1 [Example 94.3, (2S)—N-[2-(3-Cyanophenyl)-3-(2,6-dimethyl-4-pyridyl)pyrazolo[1,5-a]pyrimidin-5-yl]-3,3,3-trifluoro-2-hydroxy-2-methyl-propanamide]
245 nM | > 1000 nM | 2 nM | 17 nM | Cc1cc(-c2c(-c3cccc(C#N)c3)nn3ccc(C(=O)NC45CC(N)(C4)C5)nc23)cc(Cl)n1 [Example 7.1, N-(3-Amino-1-bicyclo[1.1.1]pentanyl)-3-(2-chloro-6-methyl-4-pyridyl)-2-(3-cyanophenyl)pyrazolo[1,5-a]pyrimidine-5-carboxamide]
355 nM | 8460 nM | 103 nM | 1740 nM | N#Cc1c(-c2ccco2)nn2ccc(NCCCO)nc12 [Example 55.1, 2-(2-Furyl)-5-(3-hydroxypropylamino)pyrazolo[1,5-a]pyrimidine-3-carbonitrile]
1240 nM | > 1000 nM | 4.3 nM | 38 nM | Cc1cc(-c2c(-c3cccc(C#N)c3)nn3ccc(C(=O)NCC(C)(C)O)nc23)c(F)c(C)n1 [Example 101.1, 2-(3-Cyanophenyl)-3-(3-fluoro-2,6-dimethyl-4-pyridyl)-N-(2-hydroxy-2-methyl-propyl)pyrazolo[1,5-a]pyrimidine-5-carboxamide]
163 nM | 1980 nM | 10.2 nM | 90 nM | Cc1cc(-c2c(-c3cccc(C#N)c3)nn3ccc(N(C)C)nc23)cc(Cl)n1 [Example 23.4]
179 nM | > 1000 nM | 19.2 nM | 115 nM | Cc1cc(-c2c(-c3cccc(C#N)c3)nn3ccc(C(=O)NCC4CCC(=O)NC4)nc23)cc(C)n1 (centres unmarked) [Example 92.19]
301 nM | > 1000 nM | 1.2 nM | 37 nM | Cc1cc(-c2c(-c3cccc(C#N)c3)nn3ccc(C(=O)N[C@H]4C[C@](C)(O)C4)nc23)cc(C)n1 [Example 92.20]
652 nM | > 1000 nM | 13 nM | 57 nM | Cc1cc(-c2c(-c3cccc(C#N)c3)nn3ccc(C(=O)NC[C@@H]4CCC(=O)N4)nc23)cc(C)n1 [Example 92.33]
181 nM | > 1000 nM | 4.3 nM | 19 nM | Cc1cc(-c2c(-c3cccc(C#N)c3)nn3ccc(C(=O)NCC4(N)CC(F)(F)C4)nc23)cc(Cl)n1 [Example 7.10, N-[(1-Amino-3,3-difluoro-cyclobutyl)methyl]-3-(2-chloro-6-methyl-4-pyridyl)-2-(3-cyanophenyl)pyrazolo[1,5-a]pyrimidine-5-carboxamide]

Source: patent publication US20230203041A1, “ANTAGONISTS OF THE ADENOSINE A2A RECEPTOR” (AdoRx Therapeutics Limited, priority 2020, published 2023)
